In PubChem BioAssay AID1259407 (Chemical Carcinogenesis Research Information System (CCRIS), 2018):
The source made the active and inactive calls. How the calls were made is not given here.

Test system: CCRIS mutagenicity, Ames/micronucleus/aberration tests
Experiment: CCRIS mutagenicity studies

ClCc1ccccc1
mutagenic call (End Point: IN VITRO CHROMOSOMAL ABERRATIONS, Test System: CHL CELLS, Metabolic Activation: RAT, LIVER, S-9, SODIUM PHENOBARBITAL AND 5,6-BENZOFLAVONE): active; positive (structural changes) | mutagenic call (End Point: IN VITRO MICRONUCLEUS, Test System: CHL/IU CELLS, Metabolic Activation: NONE): active; positive | mutagenic call (Test System: AMES SALMONELLA TYPHIMURIUM, Strain/Indicator: TA97, Metabolic Activation: HAMSTER, LIVER, S-9, AROCLOR 1254 (10%), Method: PREINCUBATION): inactive; negative | mutagenic call (Test System: AMES SALMONELLA TYPHIMURIUM, Strain/Indicator: TA97, Metabolic Activation: HAMSTER, LIVER, S-9, AROCLOR 1254 (30%), Method: PREINCUBATION): inactive; negative | mutagenic call (Test System: AMES SALMONELLA TYPHIMURIUM, Strain/Indicator: TA97, Metabolic Activation: NONE, Method: PREINCUBATION): inactive; negative | mutagenic call (Test System: AMES SALMONELLA TYPHIMURIUM, Strain/Indicator: TA97, Metabolic Activation: RAT, LIVER, S-9, AROCLOR 1254 (10%), Method: PREINCUBATION): inactive; negative | mutagenic call (Test System: AMES SALMONELLA TYPHIMURIUM, Strain/Indicator: TA97, Metabolic Activation: RAT, LIVER, S-9, AROCLOR 1254 (30%), Method: PREINCUBATION): inactive; negative | mutagenic call (Test System: AMES SALMONELLA TYPHIMURIUM, Strain/Indicator: TA98, Metabolic Activation: HAMSTER, LIVER, S-9, AROCLOR 1254 (10%), Method: PREINCUBATION): inactive; negative | mutagenic call (Test System: AMES SALMONELLA TYPHIMURIUM, Strain/Indicator: TA98, Metabolic Activation: HAMSTER, LIVER, S-9, AROCLOR 1254 (30%), Method: PREINCUBATION): inactive; negative | mutagenic call (Test System: AMES SALMONELLA TYPHIMURIUM, Strain/Indicator: TA98, Metabolic Activation: NONE, Method: FLUCTUATION (MICROTITER)): inactive; negative | mutagenic call (Test System: AMES SALMONELLA TYPHIMURIUM, Strain/Indicator: TA98, Metabolic Activation: NONE, Method: PREINCUBATION): inactive; negative | mutagenic call (Test System: AMES SALMONELLA TYPHIMURIUM, Strain/Indicator: TA98, Metabolic Activation: RAT LIVER S-9, AROCLOR 1254, Method: FLUCTUATION (MICROTITER)): inactive; negative | mutagenic call (Test System: AMES SALMONELLA TYPHIMURIUM, Strain/Indicator: TA98, Metabolic Activation: RAT LIVER S-9, PHENOBARBITAL AND BETA-NAPHTHOFLAVONE, Method: PREINCUBATION): inactive; negative | mutagenic call (Test System: AMES SALMONELLA TYPHIMURIUM, Strain/Indicator: TA98, Metabolic Activation: RAT, LIVER, S-9, AROCLOR 1254 (10%), Method: PREINCUBATION): inactive; negative | mutagenic call (Test System: AMES SALMONELLA TYPHIMURIUM, Strain/Indicator: TA98, Metabolic Activation: RAT, LIVER, S-9, AROCLOR 1254 (30%), Method: PREINCUBATION): inactive; negative | mutagenic call (Test System: AMES SALMONELLA TYPHIMURIUM, Strain/Indicator: TA100, Metabolic Activation: HAMSTER, LIVER, S-9, AROCLOR 1254 (10 OR 30%), Method: PREINCUBATION): inactive; negative | mutagenic call (Test System: AMES SALMONELLA TYPHIMURIUM, Strain/Indicator: TA100, Metabolic Activation: NONE, Method: STANDARD PLATE): inactive; negative | mutagenic call (Test System: AMES SALMONELLA TYPHIMURIUM, Strain/Indicator: TA100, Metabolic Activation: RAT, LIVER, S-9, AROCLOR 1254 (10%), Method: PREINCUBATION): inactive; negative | mutagenic call (Test System: AMES SALMONELLA TYPHIMURIUM, Strain/Indicator: TA100, Metabolic Activation: RAT, LIVER, S-9, AROCLOR 1254 (30%), Method: PREINCUBATION): inactive; negative | mutagenic call (Test System: AMES SALMONELLA TYPHIMURIUM, Strain/Indicator: TA100, Method: STANDARD PLATE): active; positive | mutagenic call (Test System: AMES SALMONELLA TYPHIMURIUM, Strain/Indicator: TA1535, Metabolic Activation: HAMSTER, LIVER, S-9, AROCLOR 1254 (10%), Method: PREINCUBATION): inactive; negative | mutagenic call (Test System: AMES SALMONELLA TYPHIMURIUM, Strain/Indicator: TA1535, Metabolic Activation: HAMSTER, LIVER, S-9, AROCLOR 1254 (30%), Method: PREINCUBATION): inactive; negative | mutagenic call (Test System: AMES SALMONELLA TYPHIMURIUM, Strain/Indicator: TA1535, Metabolic Activation: NONE, Method: PREINCUBATION): inactive; negative | mutagenic call (Test System: AMES SALMONELLA TYPHIMURIUM, Strain/Indicator: TA1535, Metabolic Activation: RAT LIVER S-9, PHENOBARBITAL AND BETA-NAPHTHOFLAVONE, Method: PREINCUBATION): inactive; negative | mutagenic call (Test System: AMES SALMONELLA TYPHIMURIUM, Strain/Indicator: TA1535, Metabolic Activation: RAT, LIVER, S-9, AROCLOR 1254 (10%), Method: PREINCUBATION): inactive; negative | mutagenic call (Test System: AMES SALMONELLA TYPHIMURIUM, Strain/Indicator: TA1535, Metabolic Activation: RAT, LIVER, S-9, AROCLOR 1254 (30%), Method: PREINCUBATION): inactive; negative | mutagenic call (Test System: AMES SALMONELLA TYPHIMURIUM, Strain/Indicator: TA1537, Metabolic Activation: HAMSTER, LIVER, S-9, AROCLOR 1254 (10%), Method: PREINCUBATION): inactive; negative | mutagenic call (Test System: AMES SALMONELLA TYPHIMURIUM, Strain/Indicator: TA1537, Metabolic Activation: NONE, Method: FLUCTUATION (MICROTITER)): inactive; negative | mutagenic call (Test System: AMES SALMONELLA TYPHIMURIUM, Strain/Indicator: TA1537, Metabolic Activation: NONE, Method: PREINCUBATION): inactive; negative | mutagenic call (Test System: AMES SALMONELLA TYPHIMURIUM, Strain/Indicator: TA1537, Metabolic Activation: RAT LIVER S-9, AROCLOR 1254, Method: FLUCTUATION (MICROTITER)): inactive; negative | mutagenic call (Test System: AMES SALMONELLA TYPHIMURIUM, Strain/Indicator: TA1537, Metabolic Activation: RAT LIVER S-9, PHENOBARBITAL AND BETA-NAPHTHOFLAVONE, Method: PREINCUBATION): inactive; negative | mutagenic call (Test System: AMES SALMONELLA TYPHIMURIUM, Strain/Indicator: TA1537, Metabolic Activation: RAT, LIVER, S-9, AROCLOR 1254 (10%), Method: PREINCUBATION): inactive; negative | mutagenic call (Test System: AMES SALMONELLA TYPHIMURIUM, Strain/Indicator: TA7001, Metabolic Activation: NONE, Method: FLUCTUATION (MICROTITER)): inactive; negative | mutagenic call (Test System: AMES SALMONELLA TYPHIMURIUM, Strain/Indicator: TA7001, Metabolic Activation: RAT LIVER S-9, AROCLOR 1254, Method: FLUCTUATION (MICROTITER)): inactive; negative | mutagenic call (Test System: AMES SALMONELLA TYPHIMURIUM, Strain/Indicator: TA7002, Metabolic Activation: NONE, Method: FLUCTUATION (MICROTITER)): inactive; negative | mutagenic call (Test System: AMES SALMONELLA TYPHIMURIUM, Strain/Indicator: TA7002, Metabolic Activation: RAT LIVER S-9, AROCLOR 1254, Method: FLUCTUATION (MICROTITER)): inactive; negative | mutagenic call (Test System: AMES SALMONELLA TYPHIMURIUM, Strain/Indicator: TA7003, Metabolic Activation: NONE, Method: FLUCTUATION (MICROTITER)): inactive; negative | mutagenic call (Test System: AMES SALMONELLA TYPHIMURIUM, Strain/Indicator: TA7003, Metabolic Activation: RAT LIVER S-9, AROCLOR 1254, Method: FLUCTUATION (MICROTITER)): inactive; negative | mutagenic call (Test System: AMES SALMONELLA TYPHIMURIUM, Strain/Indicator: TA7004, Metabolic Activation: NONE, Method: FLUCTUATION (MICROTITER)): active; positive | mutagenic call (Test System: AMES SALMONELLA TYPHIMURIUM, Strain/Indicator: TA7004, Metabolic Activation: RAT LIVER S-9, AROCLOR 1254, Method: FLUCTUATION (MICROTITER)): inactive; negative | mutagenic call (Test System: AMES SALMONELLA TYPHIMURIUM, Strain/Indicator: TA7005, Metabolic Activation: NONE, Method: FLUCTUATION (MICROTITER)): active; positive | mutagenic call (Test System: AMES SALMONELLA TYPHIMURIUM, Strain/Indicator: TA7005, Metabolic Activation: RAT LIVER S-9, AROCLOR 1254, Method: FLUCTUATION (MICROTITER)): inactive; negative | mutagenic call (Test System: AMES SALMONELLA TYPHIMURIUM, Strain/Indicator: TA7006, Metabolic Activation: NONE, Method: FLUCTUATION (MICROTITER)): inactive; negative | mutagenic call (Test System: AMES SALMONELLA TYPHIMURIUM, Strain/Indicator: TA7006, Metabolic Activation: RAT LIVER S-9, AROCLOR 1254, Method: FLUCTUATION (MICROTITER)): inactive; negative | mutagenic call (Test System: Ames Salmonella typhimurium, Strain/Indicator: TA98, Metabolic Activation: None, Method: Direct plate-incorporation): inactive; negative (no data given in original article) | mutagenic call (Test System: Ames Salmonella typhimurium, Strain/Indicator: TA98, Metabolic Activation: None, Method: Direct plate-incorporation using closed container): inactive; negative, moderate toxicity at highest dose. | mutagenic call (Test System: Ames Salmonella typhimurium, Strain/Indicator: TA98, Metabolic Activation: None, Method: Vaporization-diffusion): inactive; negative | mutagenic call (Test System: Ames Salmonella typhimurium, Strain/Indicator: TA98, Metabolic Activation: Rat, liver, S-9, Aroclor 1254, Method: Direct plate-incorporation): inactive; negative (no data given in original article) | mutagenic call (Test System: Ames Salmonella typhimurium, Strain/Indicator: TA98, Metabolic Activation: Rat, liver, S-9, Aroclor 1254, Method: Direct plate-incorporation using closed container): inactive; negative, moderate toxicity at highest dose. | mutagenic call (Test System: Ames Salmonella typhimurium, Strain/Indicator: TA98, Metabolic Activation: Rat, liver, S-9, Aroclor 1254, Method: Preincubation): inactive; negative, strain also tested without s-9, but moderate to high toxicity was obse | mutagenic call (Test System: Ames Salmonella typhimurium, Strain/Indicator: TA98, Metabolic Activation: Rat, liver, S-9, Aroclor 1254, Method: Vaporization-diffusion): inactive; negative | mutagenic call (Test System: Ames Salmonella typhimurium, Strain/Indicator: TA100, Metabolic Activation: None, Method: Direct plate-incorporation): inactive; negative | mutagenic call (Test System: Ames Salmonella typhimurium, Strain/Indicator: TA100, Metabolic Activation: None, Method: Vaporization-diffusion): active; positive at all doses, effect of duration of exposure evident, with only 3-hr ex | mutagenic call (Test System: Ames Salmonella typhimurium, Strain/Indicator: TA100, Metabolic Activation: Rat, liver, S-9, Aroclor 1254, Method: Direct plate-incorporation): active; positive (weak but dose related response; in previous test, higher dose of 2,500 | mutagenic call (Test System: Ames Salmonella typhimurium, Strain/Indicator: TA100, Metabolic Activation: Rat, liver, S-9, Aroclor 1254, Method: Preincubation): active; positive, weak, dose-related increase in number of revertants noted. strain also | mutagenic call (Test System: Ames Salmonella typhimurium, Strain/Indicator: TA100, Metabolic Activation: Rat, liver, S-9, Aroclor 1254, Method: Vaporization-diffusion): active; positive at all doses, effect of duration of exposure evident, with only 3-hr ex | mutagenic call (Test System: Ames Salmonella typhimurium, Strain/Sex: TA100, Metabolic Activation: None, Method: Direct plate-incorporation using closed container): active; positive, moderate toxicity at highest dose. | mutagenic call (Test System: Ames Salmonella typhimurium, Strain/Sex: TA100, Metabolic Activation: Rat, liver, S-9, Aroclor 1254, Method: Direct plate-incorporation using closed container): active; positive, moderate toxicity at highest dose. | mutagenic call (Test System: UDS HUMAN FIBROBLASTS, Strain/Indicator: THY INCORP (NON-S-PHASE), Metabolic Activation: NONE, Method: LIQUID SCINTILLATION COUNTING): active; positive
